# Experimental data reported in paper PMC8740768 (Proceedings of the National Academy of Sciences of the …, 2021).
# “Also recorded” adds a separate entry of the source. Read-outs that look alike come from different tables or passages of the source.
# B1: protease-associated domain of vacuolar sorting receptor isoform 1 (VSR1-PA) (domain or fragment, Arabidopsis thaliana, UniProt P93026 20-182, looked up)
# chain: RFVVEKNNLKVTSPDSIKGIYECAIGNFGVPQYGGTLVGTVVYPKSNQKACKSYSDFDISFKSKPGRLPTFVLIDRGDCYFTLKAWIAQQAGAAAILVADSKAEPLITMDTPEEDKSDADYLQNITIPSALITKTLGDSIKSALSGGDMVNMKLDWTESVPHP
# B2: C-terminal peptide of CRU1 (YRVAAA) (peptide)
# peptide: YRVAAA
# Experiments:
# VSR1-PA-R95M = assay: Thermal shift assay; type: binding, Arabidopsis thaliana; details: 5 mM peptide, 50 μM VSR1-PA-R95M, pH 7.1; n = 3; ns P > 0.05
# soybean seeds = details: cited from earlier work
# VSR1-NT [1] = assay: Competitive peptide pull-down: elution of Cru1-ctVSD-bound VSR1-NT; parameters: species or system Arabidopsis thaliana; details: 2 mM peptide in VSR binding buffer, 4C, 4 hours, T7 immunoblot
# VSR1 = details: cited from earlier work
# VSR1-NT [2] = assay: Competitive peptide pull-down: elution of aleurain-ssVSD-bound VSR1-NT; parameters: species or system Arabidopsis thaliana; details: 2 mM peptide in VSR binding buffer, 4C, 4 hours; T7 immunoblot
# VSR1-PA = details: cited from earlier work
# phaseolin = details: cited from earlier work
# PSV = details: C terminus of phaseolin; cited from earlier work
# [3] = molecular target: B2; assay: thermal shift assay
# [4] = molecular target: B1; assay: crystal structure
# [5] = molecular target: B1; assay: differential scanning fluorimetry, isothermal analysis
# [6] = molecular target: B1; assay: as above; remark: listed apart in the source
molecule,measurement,setting,value
YRVAAA,Change in Tm of VSR1-PA-R95M (in words),VSR1-PA-R95M,no significant change in the Tm of VSR1-PA-R95M
612PLSSILRAFY621,Targeting of GFP to the PSV,soybean seeds,sufficient to target GFP to the PSV in soybean seeds
SYGRPRVAAA [Cru1],Elution of Cru1-ctVSD-bound VSR1-NT,VSR1-NT [1]; listed as Cru1-ctVSD,only eluted by ctVSD of CRU1
same,Binding to VSR1,VSR1; earlier studies,VSR1 could bind to the C-terminal peptide of CRU1; also recorded: VSR1 can bind to the C-terminal sequence
same,Calcium dependence of binding to VSR1,VSR1; pull-down assay,calcium-dependent
same,Elution of aleurain-ssVSD-bound VSR1-NT,VSR1-NT [2],eluted
SYGRPRVAAAP [Cru1+P],Elution of Cru1-ctVSD-bound VSR1-NT,VSR1-NT [1],not by aleurain-ssVSD and Cru1+P
same,Elution of aleurain-ssVSD-bound VSR1-NT,VSR1-NT [2],not eluted
"ADSNPIRPVT [aleurain-ssVSD, reference compound]",Interaction of VSR1-PA with ssVSD,VSR1-PA,VSR1-PA binds to the residues (ADS) preceding the NPIR motif
same,Elution of Cru1-ctVSD-bound VSR1-NT,VSR1-NT [1],not by aleurain-ssVSD
same,Elution of aleurain-ssVSD-bound VSR1-NT,VSR1-NT [2],eluted
AFVY,Effect of removing the C-terminal residues on phaseolin,phaseolin,abolished aggregation of phaseolin and missorted it to the extracellular space
same,Targeting of seed proteins to the PSV,PSV,essential for targeting seed proteins to the PSV
B1,increase of Tm,[3],5.3 °C
RVAAA [C-terminal pentapeptide (468RVAAA472) of CRU1],binding result,[4],binds
B2,Kd,[5],2600 µM
same,Kd,[6],9600 µM
YSDRFV [YSDRFV peptide derived from the ctVSD of VL22],Kd,[5],1000 µM
same,Kd,[6],3200 µM
